Key:
Test in all cases: Growth inhibition assay
[1] = tested on: F. nucleatum subsp. polymorphum ATCC 10953 (FNP); assay type: cell-based, Fusobacterium nucleatum subsp. polymorphum ATCC 10953; conditions: 10 µM, MHB, 1 × 10^5 CFU/mL input, three replicates
Excerpt: (§1) The following fusobacterial strains were used in this study: Fusobacterium nucleatum subsp. nucleatum ATCC 23726 (FNN23) acquired from the American Type Culture Collection (ATCC), F. nucleatum subsp. nucleatum ATCC 25586 (FNN25), F. nucleatum subsp. vincentii ATCC 49256 (FNV), and F. nucleatum subsp. polymorphum ATCC 10953 (FNP) acquired from the German Collection of Microorganisms and Cell Culture (DSMZ), F. nucleatum subsp. animalis 7_1 (FNA) and F. periodonticum 2_1_31 (FPE) both received as a kind gift from E. Allen-Vercoe (University of Guelph, Canada). All strains were routinely grown at 37°C in 80:10:10 (N2:H2:CO2) anaerobic conditions on 2% agar supplemented BHI plates (BHI, 1% [wt:vol] dried yeast extract, 1% [vol:vol] 50% sterile-filtered glucose solution, 5 µg/mL of hemin; 1% [vol:vol] fetal bovine serum) from frozen 20% glycerol stocks kept at −80°C. For liquid growth, the strains were cultured in Columbia broth (ColB; BD Difco). Precultures were prepared 24 h before inoculating the working culture at a 1:50 dilution in fresh ColB until OD600 0.5 was reached. Cultures were then diluted in non-cation adjusted Mueller-Hinton Broth (MHB, BD Difco) to the desired CFU/mL number. P. gingivalis (DSM 20709) was purchased from DSMZ and grown at 37°C in anaerobic conditions as mentioned above on 2% agar supplemented BHI+ plates (BHI, 1% [wt:vol] dried yeast extract, 1% [vol:vol] 50% sterile filtered glucose solution, 5 µg/ml of hemin; 10% [vol:vol] fetal bovine serum; and 1 µg/mL vitamin K3) for 4 days. […]
(§2) To determine the MIC value, broth microdilutions were performed according to the standard protocol with some modifications ([119]). […] Bacterial growth was monitored by measuring OD600 every 20 min with constant shaking in a plate reader (Biotek) under the normal atmospheric environment or positioned in the anaerobic chamber with double orbital shaking every 20 min prior to each measurement with 237 cpm at 37°C for 120 h.

[2] = tested on: Salmonella enterica serovar Typhimurium SL1344; assay type: cell-based; conditions: 10 µM, MHB, 1 × 10^5 CFU/mL input, aerobic, 24 h
Method: Aerobic bacterial culture was conducted with E. coli K12 MG1655 (provided by D. Lee), E. coli Nissle 1917, and S. enterica serovar Typhimurium SL1344 (provided by D. Bumann, Biocenter Basel, Switzerland). The strains were streaked on lysogeny broth plates, incubated o.n. at 37°C and cultured in non-cation-adjusted MHB with aeration at 37°C and 220 rpm constant shaking.
To determine the MIC value, broth microdilutions were performed according to the standard protocol with some modifications ([119]). An overnight bacterial culture was diluted in a fresh ColB medium and grown to OD600 0.5 (mid-exponential phase). Fusobacteria were then diluted 1:2,500 or 1:250 in fresh MHB to obtain 1 × 10^5 CFU/mL or 1 × 10^6 CFU/mL as indicated. To determine the growth inhibition of P. gingivalis, an o.n. culture grown in BHI+ was diluted 1:1,500 in MHB to obtain 1 × 10^5 CFU/mL. E. coli K12, E. coli Nissle 1917, and S. enterica o.n. cultures grown in MHB were diluted 1:1,800 in fresh MHB to obtain 1 × 10^5 CFU/mL. […] Bacterial growth was monitored by measuring OD600 every 20 min with constant shaking in a plate reader (Biotek) under the normal atmospheric environment or positioned in the anaerobic chamber with double orbital shaking every 20 min prior to each measurement with 237 cpm at 37°C for 120 h.

[3] = tested on: F. nucleatum subsp. nucleatum ATCC 25586 (FNN25); assay type: cell-based, Fusobacterium nucleatum subsp. nucleatum ATCC 25586; conditions: 10 µM, MHB, 1 × 10^5 CFU/mL input, three replicates
Excerpt: as §1, §2

Substance | Growth inhibition of FNP [1] | Effect on growth of S. enterica [2] | Growth inhibition of FNN25 [3]
(RXR)4XB-GACATAATTGT [FUS79, non-targeting (RXR)4XB-PNA 11-mer control, (RXR)4XB-…] | inhibited the growth | no specific bactericidal effect | inhibited the growth
RXRRXRRXRRXRXB [PNAscr] | growth retardation compared with the water control | – | growth retardation compared with the water control
